From patent US10646600B2, “HER2 polypeptides useful for imaging and monitoring tumors and cancers” (GE HEALTHCARE LIMITED, priority 2013, dated 2020)

Columns and labels:
[1] = test system: HER2 negative and p95HER2 transfected cell lines; assay: In vitro uptake assay, HER2 negative and p95HER2 transfected cell lines; type: cell-based, human; conditions: across all HER2 negative and p95HER2 transfected lines, 60 minutes
Text: MCF7-vector (piRES), MCF7-p95HER2 and MCF7-HER2 cells were a kind gift of Jose Baselga's laboratory (17). MCF7 clones, MDA-MB-231 (ATCC, Manassas, Va.), MDA-MB-361 (Sigma-Aldrich), SKBR-3 (ATCC) and SKOV-3 (Sigma-Aldrich) cells were maintained in DMEM. AGS (Sigma-Aldrich), HGC-27 (Sigma-Aldrich), NCI-N87 (ATCC) and OE-33 (ATCC) cells were maintained in RPMI (Sigma-Aldrich). A431 cells (Sigma-Aldrich) were maintained in MEM Eagle medium (Sigma-Aldrich). Growth media were supplemented with 10% FCS (Lonza, Basel, Switzerland), glutamine and antibiotics (both Invitrogen, Paisley, United Kingdom). A431 cells were additionally supplemented with 1% non-essential amino acids. All cells were cultured at 37° C. in a humidified atmosphere containing 5% CO2.
For baseline uptake in HER2 positive or negative lineages, 3×10^5 cells were seeded in complete media in 12-well plates (Corning, Tewksbury Mass.) and allowed to recover overnight. Cells were washed twice with serum-free medium and pulsed with 370 KBq in 500 μL serum-free medium for one h. […]
Cells were washed with PBS, trypsinized, neutralized with complete medium and centrifuged. […] The radioactivity of 100 μL lysate was counted on a Packard Cobra II gamma counter (Perkin Elmer). Radioactivity was normalized to applied radioactivity and protein content, which was determined for each sample by BCA assay (Pierce, Rockford, Ill.). […]

SKOV-3 cells = assay: In vitro uptake assay in SKOV-3 cells (blocking, siRNA, drug treatment, specific activity); type: cell-based, human
Description: For siRNA-mediated HER2 knockdown, SKOV-3 cells were transfected with 25 nM scramble control (SCR; Dharmacon, Lafayette, Colo., ON-TARGETplus Non-targeting Pool, Cat. Nr: D-001810-10-05) or HER2-targeting siRNA (Invitrogen ERBB2 Silencer® Select Validated siRNA; Cat. Nr: 4457298) by reverse wet transfection with Lipofectamine RNAiMAX (Invitrogen) according to manufacturer's instructions. 3×10^5 cells were seeded in 12-well plates 48 h prior to uptake experiment. Target knockdown was verified by western blotting on cells that were transfected in parallel.
For all uptake studies in response to drug treatment, 2.5×10^5 SKOV-3 cells were seeded in complete medium 48 h prior to uptake experiments.
For baseline uptake in HER2 positive or negative lineages, 3×10^5 cells were seeded in complete media in 12-well plates (Corning, Tewksbury Mass.) and allowed to recover overnight. Cells were washed twice with serum-free medium and pulsed with 370 KBq in 500 μL serum-free medium for one h. For blocking studies, cells were co-incubated with tracer and 0.5 mg/mL cold unlabeled [^19F]GE-226[SEQ ID NO 1].
Cells were washed with PBS, trypsinized, neutralized with complete medium and centrifuged. The pellet was washed three times with PBS and lysed in 120 μL RIPA buffer (Sigma-Aldrich). The radioactivity of 100 μL lysate was counted on a Packard Cobra II gamma counter (Perkin Elmer). Radioactivity was normalized to applied radioactivity and protein content, which was determined for each sample by BCA assay (Pierce, Rockford, Ill.).

[2] = test system: MCF7 and MCF7-p95HER2 xenografts; assay: PET-CT imaging and kinetic modeling, HER2 negative xenografts; type: in vivo, mice; conditions: HER2 negative tumors
Text: Mice were anesthetized through isoflurane inhalation and scanned on a dedicated small animal PET-CT scanner (Siemens Multimodality Inveon, Erlangen, Germany). Low dose CT scans were first acquired (80 kVp, 0.5 mA, 220 degree rotation, 600 ms per degree exposure time, 80 μm reconstruction pixel size) for PET attenuation correction and to obtain an anatomical reference. PET images were acquired following a bolus i.v. injection of approximately 3.7 MBq [^18F]GE-226 in the tail vein. Dynamic emission scans were acquired in list mode format over 60 minutes. The acquired data were sorted into 0.5-mm sinogram bins and 19 time frames for image reconstruction by filtered back projection (4×15 seconds and 4×60 seconds followed by 11×300 seconds). The Siemens Inveon Research Workplace software was used for visualization of radiotracer uptake. 30 to 60-minute cumulative images of the dynamic data were employed to define 3-dimensional (3D) regions of interest (ROI). […] The count densities were averaged for all ROIs at each time point to obtain time versus radioactivity curves (TAC). Tumor TACs were normalized to injected dose measured by a VDC-304 dose calibrator (Veenstra Instruments, Joure, Netherlands) and normalized uptake was expressed as percentage injected dose per mL tissue (NUV; % ID/mL). […]

MCF7-p95HER2 = assay: Biodistribution, MCF7-p95HER2 tumor; type: in vivo, mice; conditions: 60 min
Text: (§1) Mice were sacrificed at different time points by exsanguination.

MCF7-HER2 = assay: Biodistribution, MCF7-HER2 tumor; type: in vivo, mice; conditions: 60 min
Text: as §1

[^18F]GE-226: HER2-binding 18F-radiolabelled Affibody molecule ZHER2:2891
background uptake [1]: 1.2±0.5 % applied radioactivity per mg protein
tracer uptake in comparison to freshly prepared tracer (SKOV-3 cells; incubation initiated 70 minutes later (specific activity)): 39.5±8.5%
tracer uptake in comparison to freshly prepared tracer (SKOV-3 cells; incubation initiated 140 minutes later (specific activity)): 24.9±3.8%
NUV60 ([2]; PET, 60 minutes): 6.1±0.7 % ID/mL
Ki (net irreversible uptake rate) ([2]; two-tissue irreversible compartmental model): 0.0069±0.0014 mL/cm^3/min
Tissue uptake, MCF7-p95HER2 (MCF7-p95HER2): 6.55 ± 0.13 % ID/g tissue
Tissue uptake, MCF7-HER2 (MCF7-HER2): 11.06 ± 3.31 % ID/g tissue

[^19F]GE-226: cold unlabeled non-radioactive 19F analogue of the tracer, used for SPR and blocking
reduction of [18F]GE-226 uptake by blocking (SKOV-3 cells; co-incubation with 0.5 mg/mL cold [19F]GE-226, 60 minutes): 96.8±2.6%
[18F]GE-226 uptake compared to control cells (100±12%) (SKOV-3 cells; co-incubation with large excess of 19F analogue): 3.1±2.6%
